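How tested: cells in 96-well plates exposed to compound for 48 hours at five concentrations. TGI is the concentration that stops growth completely.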
Tests used:
Experiment in all cases: NCI tumour cell line growth inhibition, 48 h
SF-295 CNS = test system: SF-295 CNS
OVCAR-8 ovarian = test system: OVCAR-8 ovarian
HOP-62 NSCLC = test system: HOP-62 NSCLC
TK-10 renal = test system: TK-10 renal
KM20L2 colon = test system: KM20L2 colon
COLO 205 colon = test system: COLO 205 colon
NCI-H23 lung = test system: NCI-H23 lung
NCI-H460 lung = test system: NCI-H460 lung
A549 NSCLC = test system: A549 NSCLC
UO-31 renal = test system: UO-31 renal
OVCAR-3 ovarian = test system: OVCAR-3 ovarian
HOP-18 NSCLC = test system: HOP-18 NSCLC
HL-60(TB) leukemia = test system: HL-60(TB) leukemia
HCC-2998 colon = test system: HCC-2998 colon
ACHN renal = test system: ACHN renal
EKVX NSCLC = test system: EKVX NSCLC
RPMI-8226 leukemia = test system: RPMI-8226 leukemia
SK-MEL-2 melanoma = test system: SK-MEL-2 melanoma
DMS 114 small cell lung = test system: DMS 114 small cell lung
M14 melanoma = test system: M14 melanoma
CCRF-CEM leukemia = test system: CCRF-CEM leukemia
NCI-H522 lung = test system: NCI-H522 lung
OVCAR-5 ovarian = test system: OVCAR-5 ovarian
LOX IMVI melanoma = test system: LOX IMVI melanoma
SNB-75 CNS = test system: SNB-75 CNS
HT29 colon = test system: HT29 colon
SK-MEL-28 melanoma = test system: SK-MEL-28 melanoma
SN12C renal = test system: SN12C renal
CAKI-1 renal = test system: CAKI-1 renal
SW-620 colon = test system: SW-620 colon
LXFL 529 NSCLC = test system: LXFL 529 NSCLC
HOP-92 NSCLC = test system: HOP-92 NSCLC
HCT-15 colon = test system: HCT-15 colon
UACC-62 melanoma = test system: UACC-62 melanoma
SK-OV-3 ovarian = test system: SK-OV-3 ovarian
MALME-3M melanoma = test system: MALME-3M melanoma
RXF 393 renal = test system: RXF 393 renal
OVCAR-4 ovarian = test system: OVCAR-4 ovarian
U251 CNS = test system: U251 CNS
M19-MEL melanoma = test system: M19-MEL melanoma
UACC-257 melanoma = test system: UACC-257 melanoma
K-562 leukemia = test system: K-562 leukemia
SK-MEL-5 melanoma = test system: SK-MEL-5 melanoma
KM12 colon = test system: KM12 colon
786-0 renal = test system: 786-0 renal
IGROV1 ovarian = test system: IGROV1 ovarian
DLD-1 colon = test system: DLD-1 colon
MOLT-4 leukemia = test system: MOLT-4 leukemia
SF-539 CNS = test system: SF-539 CNS
DMS 273 small cell lung = test system: DMS 273 small cell lung
SF-268 CNS = test system: SF-268 CNS
NCI-H226 lung = test system: NCI-H226 lung
SNB-19 CNS = test system: SNB-19 CNS
A498 renal = test system: A498 renal
XF 498 CNS = test system: XF 498 CNS

CN(C)C(=C1C(Br)=C(Br)C(Br)=C1Br)N(C)C
TGI (SF-295 CNS): > 100 µM | TGI (OVCAR-8 ovarian): > 100 µM | TGI (HOP-62 NSCLC): > 100 µM | TGI (TK-10 renal): > 100 µM | TGI (KM20L2 colon): > 100 µM | TGI (COLO 205 colon): > 100 µM | TGI (NCI-H23 lung): > 100 µM | TGI (NCI-H460 lung): > 100 µM | TGI (A549 NSCLC): > 100 µM | TGI (UO-31 renal): > 100 µM | TGI (OVCAR-3 ovarian): > 100 µM | TGI (HOP-18 NSCLC): > 100 µM | TGI (HL-60(TB) leukemia): > 100 µM | TGI (HCC-2998 colon): > 100 µM | TGI (ACHN renal): > 100 µM | TGI (EKVX NSCLC): > 100 µM | TGI (RPMI-8226 leukemia): 76.7 µM | TGI (SK-MEL-2 melanoma): > 100 µM | TGI (DMS 114 small cell lung): > 100 µM | TGI (M14 melanoma): > 100 µM | TGI (CCRF-CEM leukemia): 95.3 µM | TGI (NCI-H522 lung): 39.9 µM | TGI (OVCAR-5 ovarian): > 100 µM | TGI (LOX IMVI melanoma): 55.6 µM | TGI (SNB-75 CNS): > 100 µM | TGI (HT29 colon): > 100 µM | TGI (SK-MEL-28 melanoma): > 100 µM | TGI (SN12C renal): > 100 µM | TGI (CAKI-1 renal): > 100 µM | TGI (SW-620 colon): > 100 µM | TGI (LXFL 529 NSCLC): > 100 µM | TGI (HOP-92 NSCLC): > 100 µM | TGI (HCT-15 colon): > 100 µM | TGI (UACC-62 melanoma): > 100 µM | TGI (SK-OV-3 ovarian): > 100 µM | TGI (MALME-3M melanoma): > 100 µM | TGI (RXF 393 renal): > 100 µM | TGI (OVCAR-4 ovarian): > 100 µM | TGI (U251 CNS): > 100 µM | TGI (M19-MEL melanoma): > 100 µM | TGI (UACC-257 melanoma): > 100 µM | TGI (K-562 leukemia): > 100 µM | TGI (SK-MEL-5 melanoma): > 100 µM | TGI (KM12 colon): > 100 µM | TGI (786-0 renal): > 100 µM | TGI (IGROV1 ovarian): > 100 µM | TGI (DLD-1 colon): > 100 µM | TGI (MOLT-4 leukemia): > 100 µM | TGI (SF-539 CNS): > 100 µM | TGI (DMS 273 small cell lung): > 100 µM | TGI (SF-268 CNS): > 100 µM

CCOc1ccc2c(c1)[n+]([O-])c(-c1ccccc1)c(N)[n+]2[O-]
TGI (SF-295 CNS): > 100 µM | TGI (OVCAR-8 ovarian): > 100 µM | TGI (HOP-62 NSCLC): > 100 µM | TGI (TK-10 renal): > 100 µM | TGI (NCI-H226 lung): > 100 µM | TGI (KM20L2 colon): > 100 µM | TGI (COLO 205 colon): 81.8 µM | TGI (NCI-H23 lung): 91.3 µM | TGI (SNB-19 CNS): > 100 µM | TGI (NCI-H460 lung): > 100 µM | TGI (A549 NSCLC): > 100 µM | TGI (UO-31 renal): > 100 µM | TGI (OVCAR-3 ovarian): > 100 µM | TGI (HOP-18 NSCLC): > 100 µM | TGI (HL-60(TB) leukemia): > 100 µM | TGI (HCC-2998 colon): > 100 µM | TGI (ACHN renal): > 100 µM | TGI (EKVX NSCLC): > 100 µM | TGI (A498 renal): > 100 µM | TGI (RPMI-8226 leukemia): > 100 µM | TGI (XF 498 CNS): > 100 µM | TGI (SK-MEL-2 melanoma): > 100 µM | TGI (DMS 114 small cell lung): > 100 µM | TGI (M14 melanoma): > 100 µM | TGI (CCRF-CEM leukemia): > 100 µM | TGI (NCI-H522 lung): 32.2 µM | TGI (OVCAR-5 ovarian): > 100 µM | TGI (LOX IMVI melanoma): > 100 µM | TGI (SNB-75 CNS): > 100 µM | TGI (HT29 colon): > 100 µM | TGI (SK-MEL-28 melanoma): > 100 µM | TGI (SN12C renal): > 100 µM | TGI (CAKI-1 renal): 89.4 µM | TGI (SW-620 colon): > 100 µM | TGI (LXFL 529 NSCLC): > 100 µM | TGI (HCT-15 colon): > 100 µM | TGI (UACC-62 melanoma): > 100 µM | TGI (SK-OV-3 ovarian): > 100 µM | TGI (MALME-3M melanoma): > 100 µM | TGI (OVCAR-4 ovarian): > 100 µM | TGI (U251 CNS): > 100 µM | TGI (M19-MEL melanoma): > 100 µM | TGI (UACC-257 melanoma): > 100 µM | TGI (K-562 leukemia): > 100 µM | TGI (SK-MEL-5 melanoma): 51.5 µM | TGI (KM12 colon): > 100 µM | TGI (786-0 renal): > 100 µM | TGI (IGROV1 ovarian): > 100 µM | TGI (DLD-1 colon): > 100 µM | TGI (MOLT-4 leukemia): > 100 µM | TGI (SF-539 CNS): > 100 µM | TGI (DMS 273 small cell lung): > 100 µM | TGI (SF-268 CNS): > 100 µM
